What was measured:
NB-1382 xenografts = experiment: Schedule dependence of temozolomide against NB-1382 xenografts; type: in vivo, mice
Description: It has been have shown that the antitumor activity of camptothecins is highly schedule dependent. […] The total dose per cycle was constant. […] In this experiment mice received a cumulative dose of 210 mg/kg per cycle.

[1] = test system: five other xenograft lines; experiment: Schedule dependence of temozolomide in five other xenograft lines; type: in vivo, mice
Description: To determine whether there was similar schedule-dependency for temozolomide, the antitumor activity of this agent was examined when given daily for 5 days, 2×5 days per 21 day cycle or 3×5 days per 28 day cycle. […] The total dose per cycle was constant. […] In this experiment mice received a cumulative dose of 210 mg/kg per cycle. Mice received 3 cycles of treatment (total cumulative dose was 630 mg/kg).

[2] = test system: NB-SD neuroblastoma xenografts; experiment: Combination study against NB-SD neuroblastoma xenografts; type: in vivo, mice
NB-1771 tumors = experiment: Combination study against NB-1771 xenografts; type: in vivo, mice
Source text: It has been have shown that the antitumor activity of camptothecins is highly schedule dependent. […] To determine whether there was similar schedule-dependency for temozolomide, the antitumor activity of this agent was examined when given daily for 5 days, 2×5 days per 21 day cycle or 3×5 days per 28 day cycle. See, as incorporated by reference, Houghton, P. J. et al., Clinical Cancer Res. Vol. 6, 4110-4118, October 2000. The total dose per cycle was constant. […] In this experiment mice received a cumulative dose of 210 mg/kg per cycle. Mice received 3 cycles of treatment (total cumulative dose was 630 mg/kg).

Rh18 rhabdomyosarcoma = experiment: Combination study against Rh18 rhabdomyosarcoma xenografts; type: in vivo, mice
[3] = test system: glioblastoma line, SJ-GBM2
Description: To determine whether there was similar schedule-dependency for temozolomide, the antitumor activity of this agent was examined when given daily for 5 days, 2×5 days per 21 day cycle or 3×5 days per 28 day cycle. […] The total dose per cycle was constant. […] Mice received 3 cycles of treatment (total cumulative dose was 630 mg/kg).

advanced melanoma = settings: cited from earlier work
in vivo = settings: mouse
[4] = irinotecan, SN-38 and APC, following administration
[5] = same total dose given over 10 days versus over 5 days or as a single administration; cited from earlier work

Q: For Cn1nnc2c(C(N)=O)ncn2c1=O [temozolomide, 3,4-dihydro-3-methyl-4-oxoimidazo-[5,1-d]1,2,3,4-tetrazin-8-carboximide], which tumor response (NB-1382 xenografts; lower doses given over more protracted periods (2x5 days per 21 day cycle, 3x5 days per 28 day cycle), same total dose per cycle) is on record?
A: progressively less effective

Q: And the tumor response (NB-1382 xenografts; temozolomide given over 5 days, 42 mg/kg/dose, 210 mg/kg per cycle, 3 cycles)?
A: CRs were achieved in all mice, and were maintained at week 12

Q: What about the “activity of most intensive schedule (daily for 5 consecutive days per cycle) compared to the other schedules” value ([1]; all experiments) of the same molecule?
A: either more active or equally active

Q: And the schedule-dependent antitumor activity ([1]; five other xenograft lines (data not shown))?
A: Far less schedule-dependent antitumor activity

Q: And the tumor response ([2]; temozolomide alone at tolerated dose levels)?
A: little activity

Q: And the “sensitivity of tumors to single agent” value (NB-1771 tumors; temozolomide as a single agent)?
A: relatively sensitive

Q: And the “sensitivity of xenograft to single agent” value (Rh18 rhabdomyosarcoma; temozolomide as a single agent)?
A: poorly sensitive

Q: What about the “overall effect of treatment” value ([3]; temozolomide alone at 42 mg/kg, tumor volume at end of treatment similar to initiation) of the same molecule?
A: stasis

Q: And the tumor response ([3]; temozolomide alone at 66 or 42 mg/kg, during the 8 weeks of treatment)?
A: some PRs, and an occasional CR

Q: What about the toxicity ([3]; temozolomide alone, higher dose level (66 mg/kg)) of the same molecule?
A: lethal during cycle 3 of treatment

Q: What about the “clinical responses, % of patients” value (advanced melanoma; patients having advanced melanoma, Newlands et al., Br. J Cancer 1992) of the same molecule?
A: 17%

Q: What about the “clinical response, % of patients” value (advanced melanoma; patients with advanced melanoma, Journal of Clinical Oncology 1995) of the same molecule?
A: 21%

Q: And the AUC(0-inf) (in vivo)?
A: 47000 ng·h/mL

Q: What about the Cmax (in vivo) of the same molecule?
A: 36000 ng/mL

Q: What about the Tmax (in vivo) of the same molecule?
A: 30 min

Q: For CCc1c2c(nc3ccc(OC(=O)N4CCC(NCCCCC(=O)O)CC4)cc13)-c1cc3c(c(=O)n1C2)COC(=O)[C@]3(O)CC [APC], which apparent tmax [4] is on record?
A: 60 min

Q: For CCc1c2c(nc3ccc(O)cc13)-c1cc3c(c(=O)n1C2)COC(=O)[C@]3(O)CC [SN-38], which apparent tmax [4] is on record?
A: 15 min

Q: Which tumor response ([2]; CPT-11 alone at 0.4 mg/kg) does the source give for CCc1c2c(nc3ccc(OC(=O)N4CCC(N5CCCCC5)CC4)cc13)-c1cc3c(c(=O)n1C2)COC(=O)[C@]3(O)CC [irinotecan, 7-ethyl-10-(4-[1-piperidino)-1-piperidino]-carbonyloxy-camptothecin] here?
A: tumors progressed

Q: What about the tumor response (NB-1771 tumors; CPT-11 alone at 0.61 mg/kg) of the same molecule?
A: an occasional CR

Q: What about the “tumor status at week 12” value (NB-1771 tumors; CPT-11 alone at 1.25 or 0.61 mg/kg) of the same molecule?
A: all tumors had progressed

Q: What about the tumor response (Rh18 rhabdomyosarcoma; CPT-11 alone at the doses used in the combination) of the same molecule?
A: few CRs

Q: What about the “antitumor activity by schedule” value [5] of the same molecule?
A: significantly more active

Q: What about the AUC(0-inf) (in vivo) of the same molecule?
A: 1820 ng·h/mL

Q: And the Cmax (in vivo)?
A: 1240 ng/mL

Q: What about the Tmax (in vivo) of the same molecule?
A: 30 min
